Where a SMILES comes first, the peptide text is derived from it.
T1: tripeptidase of L.lactis subsp. cremoris Wg2 (Lactococcus lactis subsp. cremoris, UniProt P0C2T7)
T1 sequence (P0C2T7 1-413): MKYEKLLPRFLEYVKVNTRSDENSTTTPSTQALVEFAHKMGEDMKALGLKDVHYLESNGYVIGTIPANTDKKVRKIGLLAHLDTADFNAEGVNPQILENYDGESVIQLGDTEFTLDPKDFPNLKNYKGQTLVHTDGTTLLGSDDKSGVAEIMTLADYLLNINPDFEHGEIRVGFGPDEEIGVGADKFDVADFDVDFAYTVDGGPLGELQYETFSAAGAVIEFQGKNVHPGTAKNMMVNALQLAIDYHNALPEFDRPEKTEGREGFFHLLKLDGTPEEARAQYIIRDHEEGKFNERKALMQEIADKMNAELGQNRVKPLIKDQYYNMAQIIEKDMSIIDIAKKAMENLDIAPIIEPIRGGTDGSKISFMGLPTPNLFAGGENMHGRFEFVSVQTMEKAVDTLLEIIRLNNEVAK


target: T1, tripeptidase of L.lactis subsp. cremoris Wg2; assay: Substrate specificity: peptide hydrolysis analysed by TLC; format: biochemical; parameters: key: + : hydrolysis; - : no hydrolysis; conditions: peptide hydrolysis by the purified peptidase, 2 mM substrate in 20 mM HEPES (pH 7.0), 60 min at 30°C

| Molecule | activity |
| --- | --- |
| NC(CO)C(=O)NCC(=O)NCC(=O)O (stereo not drawn) [Ser-Gly-Gly] | + |
| NCC(=O)NC(Cc1cnc[nH]1)C(=O)NCC(=O)O (stereo not drawn) [Gly-His-Gly] | + |
| Bradykinin (RPPGFSPFR; Bradykinin; UniProt P01042 381-389, looked up) | - |
| CSCC[C@H](NC(=O)[C@@H](N)CC(C)C)C(=O)O [Leu-Met] (H-Leu-Met-OH) | - |
| C[C@H](NC(=O)[C@@H](N)CCC(=O)O)C(=O)O [Glu-Ala] (H-Glu-Ala-OH) | - |
| CC(NC(=O)C1CCCN1C(=O)CN)C(=O)O (stereo not drawn) [Gly-Pro-Ala] | - |
| CC(C)C[C@H](NC(=O)[C@H](CC(C)C)NC(=O)[C@@H](N)CC(C)C)C(=O)O [Leu-Leu-Leu, leucyl-leucyl-leucine] (H-Leu-Leu-Leu-OH) | + |
| CC(C)[C@H](NC(=O)[C@@H](N)CCC(=O)O)C(=O)O [Glu-Val] (H-Glu-Val-OH) | - |
| NCC(=O)NCC(=O)NCC(=O)O [Gly-Gly-Gly] (H-Gly-Gly-Gly-OH) | + |
| oxidized β-chain insulin | - |
| CC(C)CC(NC(=O)C(NC(=O)C(C)N)C(C)C)C(=O)O (stereo not drawn) [Ala-Val-Leu] | + |
| NCCCC[C@H](NC(=O)[C@@H](N)CCC(=O)O)C(=O)O [Glu-Lys] (H-Glu-Lys-OH) | - |
| C[C@H](N)C(=O)N[C@@H](C)C(=O)N[C@@H](C)C(=O)N[C@@H](C)C(=O)N[C@@H](C)C(=O)N[C@@H](C)C(=O)O [Ala6] | - |
| NCCC[C@H](NC(=O)[C@H](CCCN)NC(=O)[C@@H](N)CCCN)C(=O)O [Orn-Orn-Orn] | + |
| CC(C)CC(NC(=O)C(Cc1ccccc1)NC(=O)CN)C(=O)O (stereo not drawn) [Gly-Phe-Leu] (H-Gly-Phe-Leu-OH; configuration not given here) | + |
| C[C@H](N)C(=O)N1CCC[C@H]1C(=O)N[C@@H](Cc1ccccc1)C(=O)O [Ala-Pro-Phe] (H-Ala-Pro-Phe-OH) | - |
| CSCC[C@H](NC(=O)[C@H](Cc1ccccc1)NC(=O)CNC(=O)CNC(=O)[C@@H](N)Cc1ccc(O)cc1)C(=O)O [Met-enkephalin] | - |
| CC(C)C[C@H](NC(=O)[C@@H](N)CC(C)C)C(=O)O [Leu-Leu] | - |
| NC(Cc1cnc[nH]1)C(=O)NCC(=O)NCC(=O)O (stereo not drawn) [His-Gly-Gly] | + |
| CC(C)[C@H](NC(=O)[C@@H](N)CCC(=O)O)C(=O)N[C@@H](Cc1ccccc1)C(=O)O [Glu-Val-Phe] (H-Glu-Val-Phe-OH) | + |
| N[C@@H](Cc1ccc(O)cc1)C(=O)NCC(=O)NCC(=O)O [Tyr-Gly-Gly] (H-Tyr-Gly-Gly-OH) | + |
| NC(Cc1ccccc1)C(=O)NCC(=O)NCC(=O)O (stereo not drawn) [Phe-Gly-Gly] | + |
| CSCCC(N)C(=O)NCC(=O)NCC(=O)O (stereo not drawn) [Met-Gly-Gly] | + |
| C[C@H](N)C(=O)N1CCC[C@H]1C(=O)N[C@@H](C)C(=O)O [Ala-Pro-Ala] (H-Ala-Pro-Ala-OH) | - |

| Molecule | activity |
| --- | --- |
| Neurotensin | - |
| CC(C)CC(NC(=O)CNC(=O)CN)C(=O)O (stereo not shown) | + |
| CC(C)C[C@H](N)C(=O)NCC(=O)NCC(=O)O [Leu-Gly-Gly, leucyl-glycyl-glycine] (H-Leu-Gly-Gly-OH) | + |
| CC(NC(=O)C(Cc1ccc(O)cc1)NC(=O)CN)C(=O)O (stereo not drawn) [Gly-Tyr-Ala] | + |
| CC(C)C[C@H](N)C(=O)NCC(=O)O [Leu-Gly] (H-Leu-Gly-OH) | - |
| N[C@@H](Cc1c[nH]c2ccccc12)C(=O)NCC(=O)NCC(=O)O [Trp-Gly-Gly] (H-Trp-Gly-Gly-OH) | + |
| C[C@H](N)C(=O)N[C@@H](C)C(=O)N[C@@H](C)C(=O)N[C@@H](C)C(=O)O [Ala4] (H-AAAA-OH) | - |
| C[C@H](N)C(=O)N[C@@H](C)C(=O)N[C@@H](C)C(=O)O [Ala3] | + |
| C[C@H](N)C(=O)N[C@@H](C)C(=O)O [Ala2] (H-Ala-Ala-OH) | - |
| NCC(=O)NCC(=O)NC(Cc1ccccc1)C(=O)O (stereo not drawn) [Gly-Gly-Phe] | + |
| C[C@H](N)C(=O)N[C@@H](CC(=O)O)C(=O)O [Ala-Asp] (H-Ala-Asp-OH) | - |
| O=C(O)CNC(=O)CNC(=O)C1CCCN1 (stereo not drawn) [Pro-Gly-Gly] | + |
| CC(C)[C@H](N)C(=O)NCC(=O)NCC(=O)O [Val-Gly-Gly] (H-Val-Gly-Gly-OH) | + |
| CC(C)C[C@H](NC(=O)[C@@H](N)Cc1ccccc1)C(=O)O [Phe-Leu] (H-Phe-Leu-OH) | - |
| NCC(=O)N1CCC[C@H]1C(=O)NCC(=O)NCC(=O)O [Gly-Pro-Gly-Gly] (H-GPGG-OH) | - |
| CSCC[C@H](NC(=O)[C@H](CC(C)C)NC(=O)CNC(=O)[C@H](Cc1ccccc1)NC(=O)[C@H](Cc1ccccc1)NC(=O)[C@H](CCC(N)=O)NC(=O)[C@H](CCC(N)=O)NC(=O)[C@@H]1CCCN1C(=O)[C@H](CCCCN)NC(=O)[C@@H]1CCCN1C(=O)[C@@H](N)CCCNC(=N)N)C(N)=O [Substance P] | - |
| C[C@H](N)C(=O)N[C@@H](Cc1cnc[nH]1)C(=O)N[C@@H](C)C(=O)O [Ala-His-Ala] (H-Ala-His-Ala-OH) | + |
| C[C@H](N)C(=O)N[C@@H](C)C(=O)N[C@@H](C)C(=O)N[C@@H](C)C(=O)N[C@@H](C)C(=O)O [Ala5] | - |
| CC(NC(=O)C(CO)NC(=O)CN)C(=O)O (stereo not drawn) [Gly-Ser-Ala] | + |
| N=C(N)NCCCC(N)C(=O)NCC(=O)NCC(=O)O (stereo not drawn) [Arg-Gly-Gly] | + |
| NCC(=O)NCC(=O)O [Gly-Gly] (H-Gly-Gly-OH) | - |
| N[C@@H](CCC(=O)O)C(=O)N[C@@H](CCC(=O)O)C(=O)O [Glu-Glu] (H-Glu-Glu-OH) | - |
| CC(C)CC(NC(=O)CN)C(=O)NC(Cc1ccc(O)cc1)C(=O)O (stereo not drawn) [Gly-Leu-Tyr] (H-Gly-Leu-Tyr-OH; configuration not given here) | + |

substrate: CC(C)C[C@H](NC(=O)[C@H](CC(C)C)NC(=O)[C@@H](N)CC(C)C)C(=O)O; assay: Determination of kinetic parameters for leu3 hydrolysis (coupled enzyme reaction); format: biochemical, L.lactis subsp. cremoris Wg2; conditions: other: leu₃ as substrate, 30°C

| Molecule | Km [µM] | Vmax [µmol/min.mg protein] | kcat [s⁻¹] |
| --- | --- | --- | --- |
| tripeptidase of L.lactis subsp. cremoris Wg2 (Lactococcus cremoris) (protein, the resulting supernatant (i.e. cell-free extract) was used for enzyme isolation; made in house; host or cells: Natural producer L. lactis subsp. cremoris Wg2 (proteinase-negative variant), not recombinant; Purified by DEAE-Sephacel, Phenyl-Sepharose, Sephadex G-100 SF and HPLC TSK G3000 SW) MKYEKLLPRFLEYVKVNTRSDENSTTTPSTQALVEFAHKMGEDMKALGLKDVHYLESNGYVIGTIPANTDKKVRKIGLLAHLDTADFNAEGVNPQILENYDGESVIQLGDTEFTLDPKDFPNLKNYKGQTLVHTDGTTLLGSDDKSGVAEIMTLADYLLNINPDFEHGEIRVGFGPDEEIGVGADKFDVADFDVDFAYTVDGGPLGELQYETFSAAGAVIEFQGKNVHPGTAKNMMVNALQLAIDYHNALPEFDRPEKTEGREGFFHLLKLDGTPEEARAQYIIRDHEEGKFNERKALMQEIADKMNAELGQNRVKPLIKDQYYNMAQIIEKDMSIIDIAKKAMENLDIAPIIEPIRGGTDGSKISFMGLPTPNLFAGGENMHGRFEFVSVQTMEKAVDTLLEIIRLNNEVAK | 150 | 151 | 264 |

target: T1, tripeptidase of L.lactis subsp. cremoris Wg2; assay: Effects of chemical agents on the peptidase activity (leu3 hydrolysis); format: biochemical; conditions: not given

| Molecule | effect on the enzyme (summary in words) | effect on the enzyme activity (in words) |
| --- | --- | --- |
| COC(CNC(=O)c1ccccc1OCC(=O)O)[CH2][Hg][OH] (stereo not shown) [Mersalyl, o-(3-hydroxymercuri-2-methoxypropyl)carbamylphenoxyacetate] | not inhibited |  |
| CCN1C(=O)C=CC1=O [NEM, N-ethylmaleimide] |  | slightly inhibited the activity |
| O=S(=O)(O)c1cc[c]([Hg][Cl])cc1 [pCMBS, p-chloromercuribenzenesulphonate] | not inhibited |  |
| O=C(O)c1cc[c]([Hg][Cl])cc1 [pCMB, p-chloromercuribenzoate] | not inhibited |  |

same assay, conditions: NEM 0.5 mM; cystine 0.05 mM; phenylarsine oxide 0.1 mM; DTT 1 mM; β-mercaptoethanol 0.4 mM; ferricyanide 3 mM after the reducing agents

| Molecule | effect on the enzyme activity (in words) |
| --- | --- |
| N[C@@H](CSSC[C@H](N)C(=O)O)C(=O)O [Cystine, cystine] | had no effect on the enzyme activity |
| O[C@H](CS)[C@H](O)CS (racemic) [DTT, dithiothreitol] | strong inhibition |
| OCCS [β-Mercaptoethanol, β-mercaptoethanol] | strong inhibition |

same assay, conditions: pH 7, read-out: relative activity (%)

| Molecule | activity at 500 µM [%] |
| --- | --- |
| CCN1C(=O)C=CC1=O [NEM, N-ethylmaleimide] | 76 |

same assay, conditions: pH 7; read-out: relative activity (%)

| Molecule | activity at 400 µM [%] |
| --- | --- |
| OCCS [β-Mercaptoethanol, β-mercaptoethanol] | 14 |

same assay, conditions: reagent 0.05 mM; 0.84 μg enzyme/ml, 10 min at pH 7 (20°C) before leu3 was added; none = 100; read-out: relative activity (%)

| Molecule | activity at 50 µM [%] |
| --- | --- |
| N[C@@H](CSSC[C@H](N)C(=O)O)C(=O)O [Cystine, cystine] | 118 |

same assay, conditions: reagent 1 mM; 0.84 μg enzyme/ml, 10 min at pH 7 (20°C) before leu3 was added; none = 100; read-out: relative activity (%)

| Molecule | activity at 1000 µM [%] |
| --- | --- |
| O[C@H](CS)[C@H](O)CS (racemic) [DTT, dithiothreitol] | 4 |

same assay, conditions: summary statement, concentration not given

| Molecule | effect on the enzyme (summary in words) |
| --- | --- |
| O[C@H](CS)[C@H](O)CS (racemic) [DTT, dithiothreitol] | strong inhibition |
| OCCS [β-Mercaptoethanol, β-mercaptoethanol] | strong inhibition |

target: T1, tripeptidase of L.lactis subsp. cremoris Wg2; assay: biochemical; conditions: read-out: inhibition of the enzyme activity
Procedure: Peptidase activity was determined by measuring the release of leucine from the tripeptide leucyl-leucyl-leucine (leu₃) (2 mM in 20 mM 4-(2-hydroxyethyl)-1-piperazine-ethane-sulphonic acid [HEPES], pH 7.0). Enzyme and substrate were incubated for 10 min. at 30°C, and the release of leucine was measured by the modified cadmium-ninhydrin method as described by Doi et al., Anal.Biochem. 118, 1981, 173-184. […] Peptidase activity was determined as follows: the reaction mixture containing 2 mM substrate in 20 mM HEPES (pH 7.0) and a suitable amount of enzyme was incubated for 60 min. at 30°C.
All the metal ions were added in the form of chlorides to exclude a possible effect of the anions.

| Molecule | inhibition at 200 µM [%] |
| --- | --- |
| O=C(O)CN(CCN(CC(=O)O)CC(=O)O)CC(=O)O [EDTA] | 79 |

From patent EP0440303A1 (PROBICOM RESEARCH B.V., priority 1990, dated 1991)
